Assay results from PubChem BioAssay AID600 (The Scripps Research Institute Molecular Screening Center, 2007).
Calls of active or inactive are those of the source.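 The calls were made as follows: active = IC50 at or below 10 micromolar; inactive = IC50 above 10 micromolar.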

Biological target: Steroidogenic factor 1 (Homo sapiens) (UniProt Q13285)
Assay: SF-1 inhibitor potency, dose response, cell-based, CHO-K1, Gal4-SF-1 LBD, luciferase luminescence (AID 600)
Settings: CHO-K1 Gal4-SF-1 LBD luciferase reporter

Steroidogenic factor 1 (Homo sapiens), sequence (Q13285 whole entry, looked up, the tested form may be a part): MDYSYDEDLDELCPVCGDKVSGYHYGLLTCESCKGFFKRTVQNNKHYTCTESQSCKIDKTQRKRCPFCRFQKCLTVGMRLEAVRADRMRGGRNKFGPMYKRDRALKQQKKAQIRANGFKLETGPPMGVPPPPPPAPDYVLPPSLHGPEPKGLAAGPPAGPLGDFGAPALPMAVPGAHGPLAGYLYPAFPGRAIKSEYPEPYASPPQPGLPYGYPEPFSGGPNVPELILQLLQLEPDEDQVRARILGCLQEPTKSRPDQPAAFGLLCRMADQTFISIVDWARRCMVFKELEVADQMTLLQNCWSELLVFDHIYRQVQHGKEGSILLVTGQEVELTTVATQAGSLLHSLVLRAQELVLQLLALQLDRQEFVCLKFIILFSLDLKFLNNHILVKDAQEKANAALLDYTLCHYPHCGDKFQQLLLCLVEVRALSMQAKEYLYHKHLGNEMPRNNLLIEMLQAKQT

Row | SMILES | IC50
1 | CC(=O)CC1OC(=O)C(Br)=C1NCc1ccccc1 (stereo not drawn) | > 11 µM (inactive)
2 | COC(=O)c1ccc(N2C(=O)CC(N3CCC(n4c(=O)[nH]c5ccccc54)CC3)C2=O)cc1 (stereo not drawn) | > 99 µM (inactive)
3 | COC(=O)C1=C(CN2CCCc3ccccc32)NC(=O)NC1c1ccc(F)cc1 (stereo not drawn) | 5.34 µM
4 | O=C(/C=C\Nc1ccc2c(c1)OCO2)c1ccccn1 | inactive
5 | COc1cc(C2C(C#N)=C(N)Oc3cc(N)ccc32)cc(OC)c1OC (stereo not drawn) | 7.92 µM
6 | CCN(CC)c1ccc2c(c1)OC(N)=C(C#N)C2c1cccnc1 (stereo not drawn) | > 3.67 µM (inactive)
7 | CCOC(=O)C1=C(Cn2cnc3ccccc32)NC(=O)NC1c1cc(C)ccc1C (stereo not drawn) | inactive
8 | CN(C)c1ccc(N/C=C/C(=O)c2ccccc2)cc1 | > 11 µM (inactive)
9 | O=C(/C=C\Nc1ccccn1)c1ccc(Cl)cc1 | 6.09 µM
10 | CN(C)c1ccc2c(c1)OC(N)=C(C#N)C2c1cccc(F)c1 (stereo not drawn) | inactive
11 | CCOc1ccccc1-n1c(SCC(=O)Nc2ccc(CC)cc2)nc2n[nH]c(C)c2c1=N | 5.99 µM
12 | COc1cc(C2C(C#N)=C(N)Oc3cc(N(C)C)ccc32)cc2c1OCO2 (stereo not drawn) | > 3.67 µM (inactive)
13 | N#CC1=C(N)C(C#N)(C#N)[C@H](c2ccncc2)[C@H]2CN(C(=O)OCc3ccccc3)CC=C12 | inactive
14 | CSC1=C(C#N)C(c2ccc(Cl)cc2)C2=C(CC(C)(C)CC2=O)N1 (stereo not drawn) | inactive
15 | COc1cc(/C=N/O)ccc1OCc1ccc(C(=O)O)cc1 | 1.16 µM
16 | Cc1ccc(C(=O)/C=C/Nc2ccccn2)cc1 | > 11 µM (inactive)
17 | O=C(/C=C\Nc1cccc(F)c1)c1ccc2c(c1)OCO2 | 4.65 µM
18 | O=S(=O)(c1ccc2c(c1)C(=NO)c1cc(S(=O)(=O)N3CCCCC3)ccc1-2)N1CCCCC1 | 1.51 µM
